Columns and labels:
[1] = tested on: LNCaP tumor transplanted mice; assay: In vivo radioactivity distribution using LNCaP tumor transplanted mice
Procedure: (§1) Animal experiments were performed in accordance with the guidelines of Kyoto University Animal Experiment Committee. Male CB17/IcrJcl-Prkdc^scid mice were purchased from CLEA Japan, Inc. The animals were raised under 12 h/12 h day/night cycle conditions and freely fed with food and water. LNCaP cells (1.0×10^7 cells/mouse) or PC-3 cells (1.0×10^7 cells/mouse) were suspended in a mixed liquid (1:1,150 μL) of PBS and Matrigel manufactured by Corning Life Sciences Inc., and the suspension was subcutaneously transplanted to the right shoulder of each of the mice under isoflurane anesthesia. Thereafter, the mice were raised for 40 to 60 days.
(§2) A saline solution (185 kBq, 100 μL) of [^111In]In-PSMA-DA1 or [^111In]In-PSMA-DB was injected into each of LNCaP or PC-3 tumor transplanted mice via the tail vein thereof (n=3 in each group). The mice were euthanized 1, 4, 24, 48, 96, and 192 hours after the injection. Thereafter, blood and organs were collected, and the mass and radioactivity of each of the organs were measured.
A result thereof is indicated as a value (% ID/g) obtained by dividing the percentage (% ID) of the amount of radioactivity with respect to the amount of injected radioactivity (injected dose) by the mass of blood or the mass of an organ (g). […]

[2] = molecular target: human serum albumin (HSA) (Homo sapiens, UniProt P02768); assay: Evaluation of binding to albumin (spin column), HSA solution and PBS; details: FIG. 5
Procedure: Thereafter, the reaction liquid was added to a spin column (Sephadex G-100 manufactured by Cytiva), and centrifuged at 1500×g at 4° C. for two minutes. After the separation, the radioactivity of each of the column and the eluate was measured with a gamma counter.
Data was expressed as mean±standard deviation. A significant difference test was performed using Student's t-test, and a result of p<0.05 was defined to have a significant difference.
The higher a value, the higher binding property to albumin.
Thereafter, the reaction liquid was added to a spin column (Sephadex G-100 manufactured by Cytiva), and centrifuged at 1500×g at 4° C. for two minutes. After the centrifugation, the radioactivity of each of the column and the eluate was measured with a gamma counter.

[3] = tested on: LNCaP tumor transplanted mice; assay: SPECT/CT using LNCaP tumor transplanted mice; format: in vivo; details: FIG. 7
Procedure: A saline solution (1.9 to 3.0 MBq, 150 μL) of [^111In]In-PSMA-DA1 or [^111In]In-PSMA-DB was injected into each of the LNCaP tumor transplanted mice generated by the above-described method via the tail vein thereof. SPECT/CT was performed with an FX3300 pre-clinical imaging system manufactured by Gamma Medica-Ideas 24 and 48 hours after the injection. Imaging was performed under isoflurane anesthesia using a pinhole collimator with a diameter of 1.0 mm at a rotation radius of 35 mm, a scan time of 70 seconds, and the number of times of imaging of 32. After SPECT, CT (tube voltage: 60 kV, tube current: 350 μA) was performed. Image reconstruction by a three-dimensional ordered subset expectation maximization method (8 subsets, 5 iterations) was performed on projection data of SPECT.
Results of SPECT/CT are illustrated in FIG. 7. In FIG. 7, a portion indicated by an arrow is a position where the tumor is present, and a portion indicated by a circle is a position where the kidney is present. The higher the SUV, the amount of radioactivity accumulated is large.

[4] = tested on: PC-3 tumor transplanted mice; assay: In vivo radioactivity distribution using PC-3 tumor transplanted mice
Procedure: as §1, §2
A result thereof is indicated as a value (% ID/g) obtained by dividing the percentage (% ID) of the amount of radioactivity with respect to the amount of injected radioactivity (injected dose) by the mass of blood or the mass of an organ (g).

human serum albumin (HSA), sequence (P02768 25-609): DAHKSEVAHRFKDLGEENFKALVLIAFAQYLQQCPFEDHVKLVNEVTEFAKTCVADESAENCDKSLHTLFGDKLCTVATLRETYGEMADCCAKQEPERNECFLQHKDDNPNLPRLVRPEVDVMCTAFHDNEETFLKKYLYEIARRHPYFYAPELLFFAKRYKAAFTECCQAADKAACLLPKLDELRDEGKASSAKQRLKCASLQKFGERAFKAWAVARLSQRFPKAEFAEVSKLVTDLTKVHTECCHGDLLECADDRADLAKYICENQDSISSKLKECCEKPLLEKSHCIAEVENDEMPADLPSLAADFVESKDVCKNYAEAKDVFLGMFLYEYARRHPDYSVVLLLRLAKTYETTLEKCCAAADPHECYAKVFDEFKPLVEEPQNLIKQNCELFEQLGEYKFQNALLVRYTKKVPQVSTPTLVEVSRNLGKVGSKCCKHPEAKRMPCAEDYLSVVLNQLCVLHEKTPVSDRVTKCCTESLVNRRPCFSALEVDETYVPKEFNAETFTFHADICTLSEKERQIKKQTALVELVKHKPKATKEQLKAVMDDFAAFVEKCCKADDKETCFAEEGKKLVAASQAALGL

Accumulation: Blood ([1]; 1 hour after injection): 3.33 ± 0.21 % ID/g | Accumulation: Brain ([1]; 1 hour after injection): 0.06 ± 0.01 % ID/g | Accumulation: Heart ([1]; 1 hour after injection): 0.87 ± 0.33 % ID/g | Accumulation: Intestinal ([1]; 1 hour after injection): 0.59 ± 0.14 % ID/g | Accumulation: Kidney ([1]; 1 hour after injection): 59.2 ± 35.2 % ID/g | Accumulation: LNCaP tumor ([1]; 1 hour after injection): 3.36 ± 0.04 % ID/g | Accumulation: Liver ([1]; 1 hour after injection): 0.91 ± 0.20 % ID/g | Accumulation: Lung ([1]; 1 hour after injection): 2.24 ± 0.60 % ID/g | Accumulation: Muscle ([1]; 1 hour after injection): 0.23 ± 0.68 % ID/g | Accumulation: Pancreas ([1]; 1 hour after injection): 0.74 ± 0.25 % ID/g | Accumulation: Spleen ([1]; 1 hour after injection): 3.05 ± 0.53 % ID/g | Accumulation: Stomach ([1]; 1 hour after injection): 0.10 ± 0.04 % ID | Accumulation: Blood ([1]; 4 hours after injection): 2.00 ± 0.29 % ID/g | Accumulation: Brain ([1]; 4 hours after injection): 0.05 ± 0.00 % ID/g | Accumulation: Heart ([1]; 4 hours after injection): 0.60 ± 0.08 % ID/g | Accumulation: Intestinal ([1]; 4 hours after injection): 1.05 ± 0.10 % ID/g | Accumulation: Kidney ([1]; 4 hours after injection): 22.7 ± 9.69 % ID/g | Accumulation: LNCaP tumor ([1]; 4 hours after injection): 2.50 ± 0.50 % ID/g | Accumulation: Liver ([1]; 4 hours after injection): 0.95 ± 0.05 % ID/g | Accumulation: Lung ([1]; 4 hours after injection): 1.56 ± 0.07 % ID/g | Accumulation: Muscle ([1]; 4 hours after injection): 0.21 ± 0.04 % ID/g | Accumulation: Pancreas ([1]; 4 hours after injection): 0.54 ± 0.22 % ID/g | Accumulation: Spleen ([1]; 4 hours after injection): 2.39 ± 0.05 % ID/g | Accumulation: Stomach ([1]; 4 hours after injection): 0.13 ± 0.03 % ID | Accumulation: Blood ([1]; 24 hours after injection): 0.68 ± 0.17 % ID/g | Accumulation: Brain ([1]; 24 hours after injection): 0.07 ± 0.02 % ID/g | Accumulation: Heart ([1]; 24 hours after injection): 0.43 ± 0.07 % ID/g | Accumulation: Intestinal ([1]; 24 hours after injection): 1.00 ± 0.44 % ID/g | Accumulation: Kidney ([1]; 24 hours after injection): 13.2 ± 2.41 % ID/g | Accumulation: LNCaP tumor ([1]; 24 hours after injection): 2.09 ± 0.39 % ID/g | Accumulation: Liver ([1]; 24 hours after injection): 1.55 ± 0.32 % ID/g | Accumulation: Lung ([1]; 24 hours after injection): 0.97 ± 0.15 % ID/g | Accumulation: Muscle ([1]; 24 hours after injection): 0.21 ± 0.07 % ID/g | Accumulation: Pancreas ([1]; 24 hours after injection): 0.71 ± 0.10 % ID/g | Accumulation: Spleen ([1]; 24 hours after injection): 3.37 ± 0.75 % ID/g | Accumulation: Stomach ([1]; 24 hours after injection): 0.16 ± 0.05 % ID | Accumulation: Blood ([1]; 48 hours after injection): 0.27 ± 0.16 % ID/g | Accumulation: Brain ([1]; 48 hours after injection): 0.03 ± 0.02 % ID/g | Accumulation: Heart ([1]; 48 hours after injection): 0.32 ± 0.05 % ID/g | Accumulation: Intestinal ([1]; 48 hours after injection): 0.79 ± 0.21 % ID/g | Accumulation: Kidney ([1]; 48 hours after injection): 8.58 ± 2.02 % ID/g | Accumulation: LNCaP tumor ([1]; 48 hours after injection): 1.69 ± 0.77 % ID/g | Accumulation: Liver ([1]; 48 hours after injection): 1.28 ± 0.16 % ID/g | Accumulation: Lung ([1]; 48 hours after injection): 0.66 ± 0.24 % ID/g | Accumulation: Muscle ([1]; 48 hours after injection): 0.15 ± 0.06 % ID/g | Accumulation: Pancreas ([1]; 48 hours after injection): 0.71 ± 0.17 % ID/g | Accumulation: Spleen ([1]; 48 hours after injection): 2.63 ± 0.83 % ID/g | Accumulation: Stomach ([1]; 48 hours after injection): 0.07 ± 0.02 % ID | Accumulation: Blood ([1]; 96 hours after injection): 0.14 ± 0.04 % ID/g | Accumulation: Brain ([1]; 96 hours after injection): 0.09 ± 0.05 % ID/g | Accumulation: Heart ([1]; 96 hours after injection): 0.40 ± 0.12 % ID/g | Accumulation: Intestinal ([1]; 96 hours after injection): 0.41 ± 0.17 % ID/g | Accumulation: Kidney ([1]; 96 hours after injection): 7.04 ± 3.28 % ID/g | Accumulation: LNCaP tumor ([1]; 96 hours after injection): 1.05 ± 0.03 % ID/g | Accumulation: Liver ([1]; 96 hours after injection): 1.59 ± 0.57 % ID/g | Accumulation: Lung ([1]; 96 hours after injection): 0.70 ± 0.15 % ID/g | Accumulation: Muscle ([1]; 96 hours after injection): 0.14 ± 0.08 % ID/g | Accumulation: Pancreas ([1]; 96 hours after injection): 0.85 ± 0.39 % ID/g | Accumulation: Spleen ([1]; 96 hours after injection): 2.82 ± 0.87 % ID/g | Accumulation: Stomach ([1]; 96 hours after injection): 0.10 ± 0.03 % ID | Accumulation: Blood ([1]; 192 hours after injection): 0.07 ± 0.03 % ID/g | Accumulation: Brain ([1]; 192 hours after injection): 0.04 ± 0.00 % ID/g | Accumulation: Heart ([1]; 192 hours after injection): 0.33 ± 0.01 % ID/g | Accumulation: Intestinal ([1]; 192 hours after injection): 0.13 ± 0.02 % ID/g | Accumulation: Kidney ([1]; 192 hours after injection): 3.47 ± 1.24 % ID/g | Accumulation: LNCaP tumor ([1]; 192 hours after injection): 0.83 ± 0.11 % ID/g | Accumulation: Liver ([1]; 192 hours after injection): 1.20 ± 0.09 % ID/g | Accumulation: Lung ([1]; 192 hours after injection): 0.67 ± 0.05 % ID/g | Accumulation: Muscle ([1]; 192 hours after injection): 0.14 ± 0.09 % ID/g | Accumulation: Pancreas ([1]; 192 hours after injection): 1.04 ± 0.18 % ID/g | Accumulation: Spleen ([1]; 192 hours after injection): 3.46 ± 0.32 % ID/g | Accumulation: Stomach ([1]; 192 hours after injection): 0.05 ± 0.00 % ID | Tumor/kidney ratio compared with [^111In]In-PSMA-DA1 (in words) ([1]; at any time point): lower tumor/kidney ratio | Accumulation: Blood ([4]; 1 hour after injection): 1.92 ± 0.27 % ID/g | Accumulation: Brain ([4]; 1 hour after injection): 0.06 ± 0.00 % ID/g | Accumulation: Heart ([4]; 1 hour after injection): 0.49 ± 0.05 % ID/g | Accumulation: Intestinal ([4]; 1 hour after injection): 0.48 ± 0.04 % ID/g | Accumulation: Kidney ([4]; 1 hour after injection): 49.5 ± 12.6 % ID/g | Accumulation: Liver ([4]; 1 hour after injection): 0.62 ± 0.03 % ID/g | Accumulation: Lung ([4]; 1 hour after injection): 1.36 ± 0.23 % ID/g | Accumulation: Muscle ([4]; 1 hour after injection): 0.21 ± 0.08 % ID/g | Accumulation: PC-3 tumor ([4]; 1 hour after injection): 0.61 ± 0.06 % ID/g | Accumulation: Pancreas ([4]; 1 hour after injection): 0.44 ± 0.06 % ID/g | Accumulation: Spleen ([4]; 1 hour after injection): 2.57 ± 0.39 % ID/g | Accumulation: Stomach ([4]; 1 hour after injection): 0.12 ± 0.04 % ID
Structure (SMILES): O=C([O-])CN1CCN(C(CCC(=O)NCCCC[C@H](NC(=O)N[C@@H](CCC(=O)O)C(=O)O)C(=O)O)C(=O)[O-])CCN(CC(=O)[O-])CCN(C(CCC(=O)Nc2ccccc2)C(=O)[O-])CC1.[111In+3] (stereo partly drawn) [[^111In]In-PSMA-DB]
Tumor accumulation compared with [^111In]In-PSMA-DA1 (in words) ([1]; LNCaP tumor): tumor accumulation lower than that of [^111In]In-PSMA-DA1 | Radioactivity in the eluate, PBS (in words) [2]: no significant radioactivity was observed in the eluate | SPECT/CT radioactivity accumulation in the LNCaP tumor (in words) ([3]; 24 and 48 hours after the injection): radioactivity accumulation was also observed in the LNCaP tumor | SPECT/CT kidney versus tumor radioactivity (in words) [3]: the accumulation was lower than that in the kidney | Accumulation in the PC-3 tumor compared with the LNCaP tumor (in words) ([4]; same time point): lower than accumulation thereof in the LNCaP tumor at the same time point
